Consider 13 compounds from patent US11166942B2 (PRAXIS BIOTECH LLC, priority 2018, dated 2021).

As usually defined, the inhibition is the change of the read-out against control, counted positive when it falls. As a reminder, the pIC50 is the IC50 on a negative log10 scale, so that one unit is a factor of ten.

Test [1] deals with Chinese hamster ovary (CHO) cells. As to the kind of experiment: Protein translation assay (puromycin labelling, CHO cells). Type of test: cell-based. As to conditions: media alone = 100%; for % Recovery of protein expression (100 nM test compound): 100 nM compound; for activity at 1 µM: Cricetulus griseus, CHO. The method, then: Chinese hamster ovary (CHO) cells were maintained at 37° C. and 5% CO2 in Dulbecco's Modified Eagle's Media (DMEM) supplemented with 10% fetal bovine serum, 2 mM L-glutamine, 100 U/ml penicillin, and 100 μg/ml streptomycin. After reaching 80% of confluence, cells were detached and seeded on 6 well plates in complete media, allowed to recover overnight and treated for 2 hours with 1 μM of the test compound (to assess protein synthesis levels in unstressed condition), or for 1 hour with 100 nM or 1 μM of the test compound and then co-treated with 300 nM Tg and 100 nM or 1 μM of the test compound (to assess the recovery of protein synthesis in a stressed condition). Cells treated with Tg alone were used as controls.
After the 2 hours treatments, media were replaced by adding 10 μg/ml puromycin (Sigma Aldrich #P8833) in complete media for 30 min. Media were removed and cells were lysed with SDS-PAGE lysis buffer. Lysates were transferred to 1.5 ml tubes and sonicated for 3 min and total protein amount were quantified using BCA Protein Assay Kit (Pierce). Equal amount of protein (30 μg) was loaded on SDS-PAGE gels. Proteins were transferred onto 0.2 μm PVDF membranes (BioRad) and probed with primary antibodies diluted in Tris-buffered saline supplemented with 0.1% Tween 20 (Merck #S6996184 505) and 3% bovine serum albumin (Rockland #BSA-50).
Puromycin (12D10) (Merck #MABE343) and β-actin (Sigma Aldrich #A5441) antibodies were used as primary antibody. A HRP-conjugated secondary antibody (Rockland) was employed to detect immune-reactive bands using enhanced chemiluminescence (ECL Western Blotting Substrate, Pierce). Quantification of protein bands was done by densitometry using ImageJ software.
Percent increase of protein synthesis in unstressed cells (without Tg treatment) in the presence of media alone or certain test compounds is shown in Table 3 The percentage levels were normalized to the media alone condition, which correspond to 100% protein synthesis.
Percent recovery of protein synthesis in stressed cells (with Tg treatment) due to the test compounds at 100 nM or 1 μM is also shown in Table 3. The levels were normalized to the media alone and to Tg alone conditions, which correspond to 100% and 0% respectively.

A further test concerns ATF4. As to the kind of experiment: ATF4 expression inhibition assay (ATF4 5'UTR luciferase reporter, Tg-stressed HEK293T cells). The format is cell-based, human. As to conditions: Homo sapiens, HEK-293T, 3 h; for inhibition at 0.1 µM: read-out: % ATF4 inhibition at 100 nM; for pIC50: read-out: ATF4 inhbition IC50; for inhibition at 1 µM: read-out: % ATF4 inhibition at 1 μM. As to the method:
The ATF4 reporter was prepared by fusing the human full length 5′UTR of ATF4 (NCBI Accession No. BC022088.2) upstream of the firefly luciferase coding sequence lacking the initiator methionine. The fused sequence was cloned into pLenti-EF1a-C-Myc-DDK-IRES-Puro cloning vector (Origen #PS100085) using standard methods. Virus production was carried out by using Lenti-X™ Packaging Single Shots Protocol (Clonetech #631276). Viral particles were used to transduce HEK293T cells (ATCC #CRL-3216, ATCC Manassas, Va.), which were subsequently selected with puromycin to generate stable cell line. Cells were maintained at 37° C. and 5% CO2 in DMEM-F12 (Hyclone #SH30023.02) supplemented with 10% heat-inactivated fetal bovine serum (Gibco #16000-044), 2 mM L-glutamine (Gibco #25030-081), 100 U/ml penicillin, and 100 μg/ml streptomycin (Gibco #15140-122).
HEK293T cells carrying the ATF4 luciferase reporter were plated on 96-well plates (Nunc) at 10,000 cells per well. Cells were treated two days after seeding with 100 nM thapsigargin (Tg) (Sigma-Aldrich #T9033) in the presence of 100 nM or 1 μM. For the assessment of the half-maximal inhibitory concentration (IC50) for selected compounds, dose-response assays were performed. Compounds were serially diluted using DMSO ranging from 0.1 nM to 1 μM. Cells without treatment or cells treated with Tg alone were used as controls. Assay plates containing cells were incubated for 3 hours at 37° C.
Luciferase reactions were performed using Luciferase Assay System (Promega #E1501) as specified by the manufacturer. Luminescence was read with an integration time of 1 s and a gain of 110 using a Cytation-5 multi-mode microplate reader (BioTek). Relative luminescence units were normalized to Tg treatment (0% inhibition) and untreated cells (100% inhibition) and the percentage of ATF4 inhibition was calculated.
Percentages of ATF4 inhibition after induction with Tg in the presence of 100 nM or 1 μM of certain test compounds are shown in Table 2. Also shown in Table 2 is the calculated IC50 for certain test compounds. […] Accordingly, inhibition of ATF4 expression as a result of the test compound indicates suppression of the ISR pathway.
For orientation: Reporter assays use an easily measured gene product as a stand-in for the process of interest.

The mark [2] stands for this setting: CHO cells stressed with 300 nM Tg, Tg alone = 0%.
The mark [3] stands for this setting: 2 h, unstressed CHO cells, 1 μM, 2 hours, read-out: % Protein synthesis in unstressed cells (1 μM test compound).
Setting [4] is: CHO cells stressed with 300 nM Tg, 1 μM compound, Tg alone = 0%, read-out: % Recovery of protein expression (1 μM test compound).
The mark [5] stands for this setting: 100 nM test compound, 100 nM thapsigargin, 3 hours, HEK293T ATF4 luciferase reporter.
The mark [6] stands for this setting: 100 nM thapsigargin, 3 hours, HEK293T ATF4 luciferase reporter.
The mark [7] stands for this setting: 1 μM test compound, 100 nM thapsigargin, 3 hours, HEK293T ATF4 luciferase reporter.

pIC50: −log10 of the molar value. Like-named read-outs stand apart in the source and are kept apart here. Some results are limits rather than exact numbers.

On to `O=C(COc1ccc(Cl)c(F)c1)NC1CCN(NC(=O)c2ccc3cc(Cl)ccc3n2)CC1` [Compound 1, 6-chloro-N-(4-(2-(4-chloro-3-fluorophenoxy)acetamido)piperidin-1-yl)quinoline-2-carboxamide], for which the “% Recovery of protein expression (100 nM test compound)” value (from here on “% Recovery of protein expression”) in test [1] (setting [2]) is recorded as 88.6%. Besides, the values for the activity at 1 µM in test [1] (setting [3]) and in test [1] (setting [4]) were 112% and 218%, respectively. The inhibition at 0.1 µM with ATF4 (setting [5]) amounted to 93.7%. For the same compound, the pIC50 in the test on ATF4 (setting [6]) is 8.44. Further, the inhibition at 1 µM in the test with ATF4 (setting [7]) stood at 97.9%.

Turning to `O=C(COc1ccc(Cl)c(F)c1)NC1CCN(NC(=O)c2cc3cc(Cl)ccc3o2)CC1` [Compound 2, 5-chloro-N-(4-(2-(4-chloro-3-fluorophenoxy)acetamido)piperidin-1-yl)benzofuran-2-carboxamide], the “% Recovery of protein expression” value in test [1] (setting [2]) is 40.2%. The activity at 1 µM in test [1] (setting [3]) is 87.5%; in test [1] (setting [4]), 123%. The inhibition at 0.1 µM in the test on ATF4 (setting [5]) is 87.1%. Besides, the pIC50 in the test with ATF4 (setting [6]) was 7.74. Moreover, the inhibition at 1 µM in the test with ATF4 (setting [7]) worked out at 97.6%.

In the case of `O=C(COc1ccc(Cl)c(F)c1)NN1CCC(NC(=O)c2ccc3cc(Cl)ccc3n2)CC1` [Compound 3, 6-chloro-N-(1-(2-(4-chloro-3-fluorophenoxy)acetamido)piperidin-4-yl)quinoline-2-carboxamide], the “% Recovery of protein expression” value in test [1] (setting [2]) was determined as 81.6%. For the same compound, the figures for the activity at 1 µM in test [1] (setting [3]) and in test [1] (setting [4]) were 152% and 190%, respectively. Besides, the inhibition at 0.1 µM in the test on ATF4 (setting [5]) was determined as 88.1%. Further, the negative logarithm of the IC50 (pIC50) in the test with ATF4 (setting [6]) is 7.97. In addition, the inhibition at 1 µM in the test with ATF4 (setting [7]) stood at 92.2%.

Regarding `O=C(COc1ccc(Cl)c(F)c1)NN1CCC(NC(=O)c2cc3cc(Cl)ccc3o2)CC1` [Compound 5, 5-chloro-N-(1-(2-(4-chloro-3-fluorophenoxy)acetamido)piperidin-4-yl)benzofuran-2-carboxamide], the “% Recovery of protein expression” value in test [1] (setting [2]) is listed as −7.1%. The activity at 1 µM in test [1] (setting [3]) amounted to 135%; in test [1] (setting [4]), 110%. Moreover, the inhibition at 0.1 µM in the test on ATF4 (setting [5]) was found to be 85.7%. For the same compound, the pIC50 in the test on ATF4 (setting [6]) is 7.73. Besides, the inhibition at 1 µM in the test with ATF4 (setting [7]) was determined as 93.7%.

Turning to `O=C(COc1ccc(Cl)c(F)c1)NN1CCN(CC(O)COc2ccc(Cl)c(F)c2)CC1` (stereo not shown) [Compound 6, 2-(4-chloro-3-fluorophenoxy)-N-(4-(3-(4-chloro-3-fluorophenoxy)-2-hydroxypropyl)piperazin-1-yl)acetamide], the “% Recovery of protein expression” value in test [1] (setting [2]) turned out to be 16.7%. The activity at 1 µM in test [1] (setting [3]) came to 97.9%; in test [1] (setting [4]), 105%. Moreover, the inhibition at 0.1 µM with ATF4 (setting [5]) is 75.9%. For the same compound, the negative logarithm of the IC50 (pIC50) in the test on ATF4 (setting [6]) was 7.51. Moreover, in the test with ATF4 (setting [7]), the inhibition at 1 µM turned out to be 83.8%.

In the case of `O=C(COc1ccc(Cl)c(F)c1)NN1CCC(NCC(O)COc2ccc(Cl)c(F)c2)CC1` (stereo not shown) [Compound 8, 2-(4-chloro-3-fluorophenoxy)-N-(4-((3-(4-chloro-3-fluorophenoxy)-2-hydroxypropyl)amino)piperidin-1-yl)acetamide], the activity at 1 µM in test [1] (setting [3]) stood at 121%. Besides, the activity at 1 µM in test [1] (setting [4]) came out at 52.1%. Besides, in the test on ATF4, the inhibition at 0.1 µM amounted to 44.2%, the inhibition at 1 µM was found to be 70.9% and the pIC50 was 6.82.

As for `O=C(NN1CCN(CC(O)COc2ccc(Cl)c(F)c2)CC1)c1ccc2cc(Cl)ccc2c1` (stereo not shown) [Compound 14, 6-chloro-N-(4-(3-(4-chloro-3-fluorophenoxy)-2-hydroxypropyl)piperazin-1-yl)-2-naphthamide], in test [1] (setting [3]), the activity at 1 µM came to 139%. Also, the activity at 1 µM in test [1] (setting [4]) was 175%. In the test with ATF4, the inhibition at 0.1 µM came to 89.3%, the inhibition at 1 µM amounted to 98.9% and the negative-log IC50 (pIC50) was 7.99.

As for `O=C(NN1CCN(CC(O)COc2ccc(Cl)c(F)c2)CC1)c1ccc2cc(Cl)ccc2n1` (stereo not shown) [Compound 15, 6-chloro-N-(4-(3-(4-chloro-3-fluorophenoxy)-2-hydroxypropyl)piperazin-1-yl)quinoline-2-carboxamide], in test [1] (setting [3]), the activity at 1 µM amounted to 119%. In test [1] (setting [4]), the activity at 1 µM came out at 248%. Also, in the test on ATF4, the inhibition at 0.1 µM was determined as 87.8%, the inhibition at 1 µM stood at 100% and the pIC50 is 7.91.

On to `O=C(COc1ccc(Cl)c(F)c1)NN1CCN(CCCOc2ccc(Cl)c(F)c2)CC1` [Compound 16, 2-(4-chloro-3-fluorophenoxy)-N-(4-(3-(4-chloro-3-fluorophenoxy)propyl)piperazin-1-yl)acetamide], for which the activity at 1 µM in test [1] (setting [3]) stood at 66.1%. Moreover, the activity at 1 µM in test [1] (setting [4]) is -5.5%. In the test on ATF4, the inhibition at 0.1 µM was found to be 46.3%, the inhibition at 1 µM was found to be 91.6% and the negative-log IC50 (pIC50) is 6.90.

Regarding `O=C(NN1CCN(CCCOc2ccc(Cl)c(F)c2)CC1)c1ccc2cc(Cl)ccc2n1` [Compound 17, 6-chloro-N-(4-(3-(4-chloro-3-fluorophenoxy)propyl)piperazin-1-yl)quinoline-2-carboxamide], the activity at 1 µM in test [1] (setting [3]) was 117%. In test [1] (setting [4]), the activity at 1 µM was 188%. Besides, in the test on ATF4, the inhibition at 0.1 µM is 58.6%, the inhibition at 1 µM is 92.7% and the pIC50 is 7.10.

On to `O=C(NN1CCN(CCCOc2ccc(Cl)c(F)c2)CC1)c1cc2cc(Cl)ccc2o1` [Compound 18, 5-chloro-N-(4-(3-(4-chloro-3-fluorophenoxy)propyl)piperazin-1-yl) benzofuran-2-carboxamide], for which, in test [1] (setting [3]), the activity at 1 µM turned out to be 89.3%. Further, in test [1] (setting [4]), the activity at 1 µM stood at 143%. In the test with ATF4, the inhibition at 0.1 µM was found to be 59.1%, the inhibition at 1 µM amounted to 94.6% and the pIC50 was 7.12.

Consider `O=C(NN1CCN(CC(O)COc2ccc(Cl)c(F)c2)CC1)c1cc2cc(Cl)ccc2o1` (stereo not shown) [Compound 19, 5-chloro-N-(4-(3-(4-chloro-3-fluorophenoxy)-2-hydroxypropyl)piperazin-1-yl)benzofuran-2-carboxamide], for which the activity at 1 µM in test [1] (setting [3]) turned out to be 115%. For the same compound, in test [1] (setting [4]), the activity at 1 µM turned out to be 175%. For the same compound, in the test with ATF4, the inhibition at 0.1 µM stood at 87.3%, the inhibition at 1 µM came out at 95.8% and the negative-log IC50 (pIC50) was 7.94.

For the compound `O=C(NN1CCC(NCC(O)COc2ccc(Cl)c(F)c2)CC1)c1ccc2cc(Cl)ccc2n1` (stereo not shown) [Compound 20, 6-chloro-N-(4-((3-(4-chloro-3-fluorophenoxy)-2-hydroxypropyl)amino)piperidin-1-yl)quinoline-2-carboxamide], in test [1] (setting [3]), the activity at 1 µM was found to be 155%. Also, the activity at 1 µM in test [1] (setting [4]) was determined as 358%. Also, in the test with ATF4, the inhibition at 0.1 µM stood at 24.7%, the inhibition at 1 µM came out at 33.7% and the negative logarithm of the IC50 (pIC50) was less than 5.00.
